Experimental data published in patent US10273221B2, “Microbiocidal heterobicyclic derivatives” (Syngenta Participations AG, priority 2015, dated 2019).

Tested on: Monographella nivalis (Microdochium nivale)
Test: Monographella nivalis (Microdochium nivale) / liquid culture (foot rot cereals)
Type: cell-based
Settings: 96 h, growth inhibition determined photometrically 4-5 days after application, vs untreated control, read-out: disease control

| SMILES | inhibition of growth at 200 ppm [%] |
| --- | --- |
| Cc1cccc2c1ncn2C1=NC(C)(C)C(C)(C)c2c1ccc(F)c2F [E-46] | ≥ 80 |
| Cc1cccc2c1ncn2C1=NC(C)(C)C(F)(F)c2cc(Cl)ccc21 [E-47] | ≥ 80 |
| Cc1c(F)ccc2c1ncn2C1=NC(C)(C)C(F)(F)c2cc(Cl)ccc21 [E-48] | ≥ 80 |
| Cc1ccc2c(ncn2C2=NC(C)(C)C(F)(F)c3cc(Cl)ccc32)c1C [E-49] | ≥ 80 |
| CC1(C)N=C(n2cnc3c4c(ccc32)CCC4)c2cccc(F)c2C1(C)C [E-51] | ≥ 80 |
| Cc1ccc2c(ncn2C2=NC3(CC3)C3(CC3)c3ccccc32)c1C [E-58] | ≥ 80 |
| Cc1cccc2c1ncn2C1=NC2(CC2)Cc2ccccc21 [E-59] | ≥ 80 |
| Cc1cccc2c1ncn2C1=NC2(CC2)C2(CC2)c2ccccc21 [E-61] | ≥ 80 |

Tested on: Sclerotinia sclerotiorum
Test: Sclerotinia sclerotiorum / liquid culture (cottony rot)
Settings: 72 h, read-out: control of Sclerotinia sclerotiorum
Description: Sclerotinia sclerotiorum/Liquid Culture (Cottony Rot)
Mycelia fragments of a newly grown liquid culture of the fungus are directly mixed into nutrient broth (Vogels broth). After placing a (DMSO) solution of test compound into a microtiter plate (96-well format) the nutrient broth containing the fungal material is added. The test plates are incubated at 24° C. and the inhibition of growth is determined photometrically 3-4 days after application.

| SMILES | inhibition of growth at 20 ppm [%] |
| --- | --- |
| Cc1cccc2c1ncn2C1=NC(C)(C)C(C)(C)c2c1ccc(F)c2F [E-46] | ≥ 80 |
| Cc1ccc2c(ncn2C2=NC3(CC3)C3(CC3)c3ccccc32)c1C [E-58] | ≥ 80 |
| Cc1cccc2c1ncn2C1=NC2(CC2)C2(CC2)c2ccccc21 [E-61] | ≥ 80 |

Tested on: Gaeumannomyces graminis
Test: Gaeumannomyces graminis / liquid culture (take-all of cereals)
Type: cell-based
Settings: growth inhibition determined photometrically 4-5 days after application, vs untreated control, read-out: disease control

| SMILES | inhibition of growth at 200 ppm [%] |
| --- | --- |
| CC1(C)N=C(n2cnc3ccccc32)c2ccccc2C12CC2 [E-3, 1′-(benzimidazol-1-yl)-3′,3′-dimethyl-spiro(cyclopropane-1,4′-isoquinoline)] | ≥ 80 |
| Cc1cccc2c1ncn2C1=NC(C)(C)C(F)(F)c2cc(Cl)ccc21 [E-47] | ≥ 80 |
| Cc1c(F)ccc2c1ncn2C1=NC(C)(C)C(F)(F)c2cc(Cl)ccc21 [E-48] | ≥ 80 |
| Cc1ccc2c(ncn2C2=NC(C)(C)C(F)(F)c3cc(Cl)ccc32)c1C [E-49] | ≥ 80 |
| CC1(C)N=C(n2cnc3c4c(ccc32)CCC4)c2cccc(F)c2C1(C)C [E-51] | ≥ 80 |
| Cc1ccc2c(ncn2C2=NC3(CC3)C3(CC3)c3ccccc32)c1C [E-58] | ≥ 80 |
| Cc1cccc2c1ncn2C1=NC2(CC2)Cc2ccccc21 [E-59] | ≥ 80 |
| Cc1cccc2c1ncn2C1=NC2(CC2)C2(CC2)c2ccccc21 [E-61] | ≥ 80 |

Tested on: Fusarium culmorum
Test: microbe, parasite or virus in culture
Type: cell-based
Settings: 72 h, read-out: disease control

| SMILES | inhibition of growth at 200 ppm [%] |
| --- | --- |
| Cc1cccc2c1ncn2C1=NC(C)(C)C(C)(C)c2c1ccc(F)c2F [E-46] | ≥ 80 |
| Cc1cccc2c1ncn2C1=NC(C)(C)C(F)(F)c2cc(Cl)ccc21 [E-47] | ≥ 80 |
| Cc1c(F)ccc2c1ncn2C1=NC(C)(C)C(F)(F)c2cc(Cl)ccc21 [E-48] | ≥ 80 |
| Cc1ccc2c(ncn2C2=NC(C)(C)C(F)(F)c3cc(Cl)ccc32)c1C [E-49] | ≥ 80 |
| CC1(C)N=C(n2cnc3c4c(ccc32)CCC4)c2cccc(F)c2C1(C)C [E-51] | ≥ 80 |
| Cc1ccc2c(ncn2C2=NC3(CC3)C3(CC3)c3ccccc32)c1C [E-58] | ≥ 80 |
| Cc1cccc2c1ncn2C1=NC2(CC2)Cc2ccccc21 [E-59] | ≥ 80 |
| Cc1cccc2c1ncn2C1=NC2(CC2)C2(CC2)c2ccccc21 [E-61] | ≥ 80 |

Tested on: Glomerella lagenarium (Colletotrichum lagenarium)
Test: Glomerella lagenarium (Colletotrichum lagenarium) / liquid culture (anthracnose)
Type: cell-based
Settings: Colletotrichum orbiculare, growth inhibition measured photometrically 3-4 days after application, vs untreated control, read-out: disease control

| SMILES | inhibition of growth at 200 ppm [%] |
| --- | --- |
| CC1(C)N=C(n2cnc3ccccc32)c2ccccc2C12CC2 [E-3, 1′-(benzimidazol-1-yl)-3′,3′-dimethyl-spiro(cyclopropane-1,4′-isoquinoline)] | ≥ 80 |
| Cc1cccc2c1ncn2C1=NC(C)(C)C(C)(C)c2c1ccc(F)c2F [E-46] | ≥ 80 |
| Cc1ccc2c(ncn2C2=NC(C)(C)C(F)(F)c3cc(Cl)ccc32)c1C [E-49] | ≥ 80 |
| Cc1ccc2c(ncn2C2=NC3(CC3)C3(CC3)c3ccccc32)c1C [E-58] | ≥ 80 |
| Cc1cccc2c1ncn2C1=NC2(CC2)Cc2ccccc21 [E-59] | ≥ 80 |
| Cc1cccc2c1ncn2C1=NC2(CC2)C2(CC2)c2ccccc21 [E-61] | ≥ 80 |

Tested on: Magnaporthe grisea (Pyricularia oryzae)
Test: microbe, parasite or virus in culture
Type: cell-based
Settings: 72 h, read-out: control of Magnaporthe grisea

| SMILES | inhibition of growth at 20 ppm [%] |
| --- | --- |
| COC(=O)c1cccc2c1ncn2C1=NC(C)(C)C(C)(C)c2c(F)cccc21 [E-24] | ≥ 80 |
| Cc1cccc2c1ncn2C1=NC(C)(C)C(C)(C)c2c1ccc(F)c2F [E-46] | ≥ 80 |
| Cc1cccc2c1ncn2C1=NC(C)(C)C(F)(F)c2cc(Cl)ccc21 [E-47] | ≥ 80 |
| Cc1c(F)ccc2c1ncn2C1=NC(C)(C)C(F)(F)c2cc(Cl)ccc21 [E-48] | ≥ 80 |
| Cc1ccc2c(ncn2C2=NC(C)(C)C(F)(F)c3cc(Cl)ccc32)c1C [E-49] | ≥ 80 |
| CC1(C)N=C(n2cnc3c4c(ccc32)CCC4)c2cccc(F)c2C1(C)C [E-51] | ≥ 80 |
| Cc1cccc2c1ncn2C1=NCC2(CCCCC2)c2ccccc21 [E-52] | ≥ 80 |
| Cc1ccc2c(ncn2C2=NC3(CC3)C3(CC3)c3ccccc32)c1C [E-58] | ≥ 80 |
| Cc1cccc2c1ncn2C1=NC2(CC2)Cc2ccccc21 [E-59] | ≥ 80 |
| Cc1cccc2c1ncn2C1=NC2(CC2)C2(CC2)c2ccccc21 [E-61] | ≥ 80 |

Tested on: not given
Test: not given
Settings: not given

| SMILES | melting point [°C] |
| --- | --- |
| Cc1cccc2c1ncn2C1=NC(C)(C)C(F)(F)c2ccccc21 | 142 to 149 |
| COC(=O)c1cccc2c1ncn2C1=NC(C)(C)C(C)(C)c2c(F)cccc21 [E-24] | 178 to 179 |
| Cc1cccc2c1ncn2C1=NC(C)(C)C(C)(C)c2c1ccc(F)c2F [E-46] | 122 to 125 |
| CC1(C)N=C(n2cnc3c4c(ccc32)CCC4)c2cccc(F)c2C1(C)C [E-51] | 177 to 178 |
| Cc1ccc2c(ncn2C2=NC3(CC3)C3(CC3)c3ccccc32)c1C [E-58] | 141 to 143 |
| Cc1cccc2c1ncn2C1=NC(C)(C)C(C)(C)c2c(F)cccc21 [Example 1] | 118 to 120 |

Tested on: Botryotinia fuckeliana (Botrytis cinerea)
Test: Botryotinia fuckeliana (Botrytis cinerea) / liquid culture (gray mould)
Type: cell-based
Settings: growth inhibition determined photometrically 3-4 days after application, vs untreated control, read-out: disease control

| SMILES | inhibition of growth at 200 ppm [%] |
| --- | --- |
| CC1(C)N=C(n2cnc3ccccc32)c2ccccc2C12CC2 [E-3, 1′-(benzimidazol-1-yl)-3′,3′-dimethyl-spiro(cyclopropane-1,4′-isoquinoline)] | ≥ 80 |
| CC1(C)N=C(n2cnc3c(Cl)cccc32)c2ccccc2C1=O [E-29] | ≥ 80 |
| Cc1cccc2c1ncn2C1=NC(C)(C)C(C)(C)c2c1ccc(F)c2F [E-46] | ≥ 80 |
| Cc1cccc2c1ncn2C1=NC(C)(C)C(F)(F)c2cc(Cl)ccc21 [E-47] | ≥ 80 |
| Cc1c(F)ccc2c1ncn2C1=NC(C)(C)C(F)(F)c2cc(Cl)ccc21 [E-48] | ≥ 80 |
| Cc1ccc2c(ncn2C2=NC(C)(C)C(F)(F)c3cc(Cl)ccc32)c1C [E-49] | ≥ 80 |
| CC1(C)N=C(n2cnc3c4c(ccc32)CCC4)c2cccc(F)c2C1(C)C [E-51] | ≥ 80 |
| Cc1cccc2c1ncn2C1=NCC2(CCCCC2)c2ccccc21 [E-52] | ≥ 80 |
| Cc1ccc2c(ncn2C2=NC3(CC3)C3(CC3)c3ccccc32)c1C [E-58] | ≥ 80 |
| Cc1cccc2c1ncn2C1=NC2(CC2)Cc2ccccc21 [E-59] | ≥ 80 |
| Cc1cccc2c1ncn2C1=NC2(CC2)C2(CC2)c2ccccc21 [E-61] | ≥ 80 |
